Data taken from ChEMBL document CHEMBL5113559, “From Oxetane to Thietane: Extending the Antiviral Spectrum of 2'-Spirocyclic Uridines by Substituting Oxygen with Sulfur” (ACS Med Chem Lett, 2022).

Key:
[1] = Cytotoxicity against human Huh-7 cells measured after 2 days by ATPLite-based viability assay; assay type: toxicity, cell-based; conditions: time 2 day
Hepatitis C virus = test: Antiviral activity against HCV genotype 1b infected in human Huh7 cells incubated for 3 days and measured by luciferase reporter gene assay; assay type: functional, organism-based, Hepacivirus hominis; conditions: subtype 1b, Huh-7, 72 h
Chikungunya virus = test: Antiviral activity against CHIKV S27 infected in human Huh-7 cells at MOI of 0.25 incubated for 2 days and measured by ATPLite assay; assay type: functional, organism-based; conditions: S27, Huh-7, 48 h
dengue virus type 2 = test: Antiviral activity against DENV2 16681 infected in human Huh-7 cells assessed as reduction in viral replication at MOI of 1 to 5 incubated for 3 days; assay type: functional, organism-based; conditions: Dengue virus, 16681, Huh-7, 72 h
[2] = Stability of compound in simulated gastric fluid incubated for 6 hrs and assessed as half-life at 1 uM by LC-MS/MS analysis; assay type: ADME
[3] = Tlast in male C57BL/6 mouse at 50 mg/kg, sc measured by LC-MS/MS analysis; assay type: ADME, organism-based; conditions: in vivo
[4] = Metabolic stability in mouse liver microsomes preincubated for 5 mins followed by addition of NADPH and assessed as intrinsic clearance by LC-MS/MS analysis; assay type: ADME, Microsome; conditions: read-out: CLH
Sindbis virus = test: Antiviral activity against SINV AR339 infected in human Huh-7 cells measured by cytopathic effect inhibition assay; assay type: functional, organism-based; conditions: AR339, Huh-7
[5] = AUClast in male C57BL/6 mouse at 50 mg/kg, sc measured by LC-MS/MS analysis; assay type: ADME, organism-based; conditions: in vivo
[6] = Stability of compound in human plasma assessed as half-life incubated for 24 hrs and assessed as half-life at 1 uM by LC-MS/MS analysis; assay type: ADME, cell-free
[7] = Stability of compound in simulated gastric fluid incubated for 6 hrs at 1 uM and assessed as compound remaining after 6 hrs by LC-MS/MS analysis; assay type: ADME; conditions: read-out: Stability
[8] = Cmax in male C57BL/6 mouse at 50 mg/kg, po measured by LC-MS/MS analysis; assay type: ADME, organism-based; set-up: dose 50 mg/kg, route po; conditions: in vivo
[9] = Tmax in male C57BL/6 mouse at 50 mg/kg, sc measured by LC-MS/MS analysis; assay type: ADME, organism-based; conditions: in vivo
[10] = Metabolic stability in human liver microsomes assessed as intrinsic clearance preincubated for 5 mins followed by addition of NADPH and assessed as intrinsic clearance by LC-MS/MS analysis; assay type: ADME, Microsome; conditions: read-out: CLH
[11] = Stability of compound in fasted state simulated intestinal fluid incubated for 6 hrs and assessed as half-life at 1 uM by LC-MS/MS analysis; assay type: ADME
[12] = Cmax in male C57BL/6 mouse at 50 mg/kg, sc measured by LC-MS/MS analysis; assay type: ADME, organism-based; set-up: dose 50 mg/kg, route sc; conditions: in vivo
[13] = Stability of compound in mouse plasma assessed as half-life incubated for 24 hrs and assessed as half-life at 1 uM by LC-MS/MS analysis; assay type: ADME, cell-free
[14] = Tlast in male C57BL/6 mouse at 50 mg/kg, po measured by LC-MS/MS analysis; assay type: ADME, organism-based; conditions: in vivo
[15] = AUClast in male C57BL/6 mouse at 50 mg/kg, po measured by LC-MS/MS analysis; assay type: ADME, organism-based; conditions: in vivo
[16] = Tmax in male C57BL/6 mouse at 50 mg/kg, po measured by LC-MS/MS analysis; assay type: ADME, organism-based; conditions: in vivo

Structure (SMILES) | CC50 at 48 h [1] [µM] | EC50 (Hepatitis C virus) [µM] | EC50 (Chikungunya virus) [µM] | EC50 (dengue virus type 2) [µM] | EC50 (Sindbis virus) [µM] | other results
CC(C)OC(=O)[C@H](C)NP(=O)(OC[C@H]1O[C@@H](n2ccc(=O)[nH]c2=O)[C@@]2(CCO2)[C@@H]1O)Oc1ccccc1 (stereo partly specified) | > 100 | 21.4 | > 100 | > 50 | – | –
CC(C)OC(=O)[C@H](C)NP(=O)(OC[C@H]1O[C@@H](n2ccc(=O)[nH]c2=O)[C@@]2(CCS2)[C@@H]1O)Oc1ccccc1 (stereo partly specified) | > 100 | 1.17 | 22.4 | 26.1 | – | –
CC(C)OC(=O)[C@H](C)NP(=O)(OC[C@@]1(F)O[C@@H](n2ccc(=O)[nH]c2=O)[C@@]2(CCO2)[C@@H]1O)Oc1ccccc1 (stereo partly specified) | > 100 | > 100 | > 100 | > 100 | – | –
CC(C)OC(=O)[C@H](C)NP(=O)(OC[C@@]1(F)O[C@@H](n2ccc(=O)[nH]c2=O)[C@@]2(CCS2)[C@@H]1O)Oc1ccccc1 (stereo partly specified) | > 100 | 2.58 | 3.25 | 28.3 | 6.19 | half-life at 1 µM [2]: > 6 h; Tlast [3]: 7 h; microsomal CLint [4]: > 347 µL/min/mg; AUClast [5]: 10000 ng·h/g; half-life at 1 µM [6]: > 30 h; remaining at 6 h, 1 µM [7]: 93%; Cmax [8]: 637 ng/mg; Tmax [9]: 2 h; microsomal CLint [10]: > 347 µL/min/mg; half-life at 1 µM [11]: 0.2 h; Cmax [12]: 2060 ng/mg; half-life at 1 µM [13]: < 0.4 h; Tlast [14]: 7 h; AUClast [15]: 3050 ng·h/g; Tmax [16]: 2 h
CC(C)OC(=O)[C@H](C)N[P@@](=O)(OC[C@@]1(F)O[C@@H](n2ccc(=O)[nH]c2=O)[C@@]2(CCS2)[C@@H]1O)Oc1ccccc1 | > 100 | 2.2 | 3.18 | 29.3 | 5.82 | –
CC(C)OC(=O)[C@H](C)N[P@](=O)(OC[C@@]1(F)O[C@@H](n2ccc(=O)[nH]c2=O)[C@@]2(CCS2)[C@@H]1O)Oc1ccccc1 | > 100 | 2.1 | 4.6 | 42 | 5.93 | –
CC(C)OC(=O)C(C)NP(=O)(OC[C@@]1(N=[N+]=[N-])O[C@@H](n2ccc(=O)[nH]c2=O)[C@@]2(CCS2)[C@@H]1O)Oc1ccccc1 (single isomer, unassigned) | > 100 | 2.8 | > 100 | > 100 | – | –
CCCCOC(=O)C(C)NP(=O)(OC[C@@]1(F)O[C@@H](n2ccc(=O)[nH]c2=O)[C@@]2(CCS2)[C@@H]1O)Oc1ccccc1 (single isomer, unassigned) | > 100 | 1.92 | 2.87 | 29 | 4.64 | –
